{
  "source": "paper PMC4381330",
  "about": "“Identification of a novel selective agonist of PPARγ with no promotion of adipogenesis and less inhibition of osteoblastogenesis” (Scientific Reports, 2015)",
  "key": {"human PPARγ-LBD": {"target": "T1, human PPARγ-LBD (Homo sapiens, UniProt P37231)", "T1 construct": "expressed in transfected cells; host or cells: HEK293T", "T1 sequence (P37231 172-476 isoform P37231-2)": "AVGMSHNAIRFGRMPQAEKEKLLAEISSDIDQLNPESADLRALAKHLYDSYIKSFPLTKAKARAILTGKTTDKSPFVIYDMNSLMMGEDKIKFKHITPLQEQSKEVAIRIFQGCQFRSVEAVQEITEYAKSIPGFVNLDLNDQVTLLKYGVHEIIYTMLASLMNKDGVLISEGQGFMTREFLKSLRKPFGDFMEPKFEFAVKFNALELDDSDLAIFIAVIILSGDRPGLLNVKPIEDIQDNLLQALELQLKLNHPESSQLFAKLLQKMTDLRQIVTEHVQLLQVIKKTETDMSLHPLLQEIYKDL", "assay": "GAL4-PPARγ-LBD luciferase reporter gene assay in HEK293T cells", "assay_type": "cell-based", "method": "(§1) The determination of nuclear receptor activation was performed as previously. Briefly, HEK293T cells were transfected with GAL4-pGL4-luc reporter plasmid and pBIND-PPARγ-LBD expression plasmid using Lipofectamine 2000 (Invitrogen) for 6 h before treatment with compounds for 20–24 h. Activity was determined by the Luciferase Assay System (Promega)."}, "LXRβ": {"target": "T2, LXRβ (Homo sapiens, UniProt P55055)", "T2 construct": "expressed in transfected cells; host or cells: HEK293T", "T2 sequence (P55055 222-460 limits assumed)": "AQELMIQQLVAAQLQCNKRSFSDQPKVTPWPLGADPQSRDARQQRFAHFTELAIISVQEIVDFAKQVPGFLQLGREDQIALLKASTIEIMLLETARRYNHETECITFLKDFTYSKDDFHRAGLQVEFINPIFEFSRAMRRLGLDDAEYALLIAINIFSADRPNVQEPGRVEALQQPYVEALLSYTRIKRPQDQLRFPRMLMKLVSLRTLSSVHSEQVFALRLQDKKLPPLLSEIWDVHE", "assay": "Receptor-specific transactivation, GAL4-LBD reporter in HEK293T cells", "assay_type": "cell-based", "settings": "30 μM F12016", "method": "HEK293T cells were cotransfected with a GAL4-pGL4-luc reporter and plasmids encoding various nuclear receptor LBDs fused with the GAL4 DNA-binding domain. […] LXR, liver X receptor; RXR, retinoid X receptor.\nas §1"}, "human PPARγ LBD": {"target": "T3, human PPARγ LBD (Homo sapiens, UniProt P37231)", "T3 construct": "incubated with GST-fused human PPARγ-LBD, terbium-labeled anti-GST antibody; purchased Invitrogen", "T3 sequence (P37231 238-503 limits assumed)": "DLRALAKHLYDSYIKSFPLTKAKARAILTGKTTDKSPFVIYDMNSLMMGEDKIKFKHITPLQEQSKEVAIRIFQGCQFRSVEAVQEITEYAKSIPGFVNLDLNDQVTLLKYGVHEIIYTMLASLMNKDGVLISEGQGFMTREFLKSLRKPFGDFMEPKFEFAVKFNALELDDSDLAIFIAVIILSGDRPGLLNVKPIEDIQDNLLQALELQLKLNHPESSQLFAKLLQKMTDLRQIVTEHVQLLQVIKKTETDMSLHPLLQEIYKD", "assay": "LanthaScreen TR-FRET PPARγ competitive binding assay", "settings": "purified human PPARγ LBD", "method": "The LanthaScreen time-resolved fluorescence resonance energy transfer (TR-FRET) PPARγ competitive binding assay (Invitrogen) was performed according to the manufacturer's protocol. […] The FRET signal was measured by excitation at 340 nm and emission at 520 nm for fluorescein and 495 nm for terbium. In this assay, test compounds' binding to PPARγ LBD competed with Pan-PPAR Green and replaced it, resulting in a decrease of signal. The ability of binding to the PPARγ-LBD was measured by the decrease of the 520 nm/495 nm ratio. Graphs were plotted as fold changes of the FRET signal for compounds over the DMSO-only control."}, "3T3-L1 adipocytes": {"system": "3T3-L1 adipocytes", "assay": "2-NBDG glucose uptake assay in mature 3T3-L1 adipocytes", "assay_type": "cell-based, mouse", "settings": "1, 10, 30 μM, 24 h, 0.05 nM insulin, vs DMSO", "method": "(§2) Glucose uptake activity was determined by measuring the uptake of 2-NBDG (2-(N-(7-nitrobenz-2-oxa-1, 3-diazol-4-yl)amino)-2-deoxyglucose, Invitrogen). […] Glucose uptake was initiated by addition of 1 mM 2-NBDG diluted in PBS. After 1 h, it was terminated by removing the contents of the wells and washing the cells with PBS. The glucose uptake was quantified by measuring the fluorescence intensity of cell lysates (prepared with neutral lysis buffer) at 485 nm excitation and 528 nm emission, and normalized to the corresponding protein content."}, "L02 normal hepatocytes": {"system": "L02 normal hepatocytes", "assay": "2-NBDG glucose uptake assay in L02 cells", "assay_type": "cell-based", "settings": "24 h, absence or presence of insulin", "method": "as §2"}, "[1]": {"system": "osteoblast marker genes in MC3T3-E1 cells", "assay": "Expression of osteoblast marker genes in MC3T3-E1 cells (qPCR)", "assay_type": "cell-based", "method": "MC3T3-E1 cells were cultured in α-MEM to confluency in 24-well plates and then cultured in differentiation medium (α-MEM supplemented with 200 μM ascorbic acid and 10 mM β-glycerophosphate) for 7, 14, and 21 days, which was replaced every 3 days. The cells were treated with DMSO, rosiglitazone, or F12016 at the start of differentiation. At day 8, 15 and 22, total RNA was isolated, and real-time PCR was performed as described below.\nTotal RNA was extracted using TRIzol reagent (Invitrogen). First-strand cDNA was synthesized from the total RNA using a reverse transcriptional kit (TransGen). Quantitative PCR with SYBR Green (Roche Diagnostics, Lewes, UK) was performed on a Stratagene MX3000P real-time PCR system (Agilent). Melting curves were obtained, and the specificity of PCR products was checked on agarose gels. Relative mRNA expression was determined by the ΔΔCt method and normalized to GAPDH mRNA levels."}, "[2]": {"target": "T4, CDK5-mediated phosphorylation of PPARγ at Ser273 (Homo sapiens, UniProt P37231)", "T4 construct": "0.5 μg purified PPARγ-LBD protein was incubated with 50 ng CDK5/p25 kinase (Millipore); Millipore (CDK5/p25 only)", "T4 sequence (P37231 238-503 limits assumed)": "T3 sequence (P37231 238-503 limits assumed)", "assay": "In vitro CDK5 assay of the PPARγ LBD (western blot)", "assay_type": "biochemical", "settings": "to a similar extent as rosiglitazone", "method": "The in vitro CDK assay was performed as described previously. Briefly, 0.5 μg purified PPARγ-LBD protein was incubated with 50 ng CDK5/p25 kinase (Millipore) in CDK assay buffer (Cell Signaling Technology, Danvers, MA, USA), followed by addition of 50 μM ATP and incubation for 30 min at room temperature. PPARγ-LBD was pre-incubated with test compounds for 30 min before performing the reaction. Phosphorylation of PPARγ Ser273 was analyzed by western blotting with an anti-CDK substrate antibody to detect phosphor-serine in the consensus motif for CDK substrate proteins (K/R-S-P-K/R) (Cell Signaling Technology)."}, "diabetic KKAy mice": {"system": "diabetic KKAy mice", "assay": "Diabetic KKAy mice, 21 days treatment (fasting blood glucose, OGTT, ITT, body weight)", "procedure": "Fasting blood glucose was measured with Onetoch Ultra Teststrip (Johnson & Johnson) at day 0, 3, 7, 14, 21, and body weight were monitored during these days.\nAfter 14 days of treatment, oral glucose tolerance test (OGTT) was performed. Mice were fasted for 6 h with free access to water. 2 g/kg of glucose was given by gavage and blood glucose was measured at 0, 30, 60, 90, and 120 min.\nAfter 21 days of feeding, insulin tolerance test (ITT) was carried out. Mice were fasted for 4 h before being injected 1 U/kg of recombinant human insulin (Novo Nordisk) subcutaneously, and blood glucose was measured at 0, 40, 90, and 120 min after insulin injection."}},
  "data": [
    {"substance": "2-[2-(1, 2-dimethyl-1H-indol-3-yl)-2-oxo-acetylamino]-benzamide [Compound F12016]", "values": [
      {"measurement": "transcriptional activity of PPARγ", "setting": "human PPARγ-LBD; 30 μM F12016, HEK293T", "value": "significantly induced transcriptional activity of PPARγ"},
      {"measurement": "maximal activation of GAL4-PPARγ", "setting": "human PPARγ-LBD; HEK293T, GAL4-PPARγ-LBD reporter", "value": "approximately 4 fold"},
      {"measurement": "EC50", "setting": "human PPARγ-LBD; HEK293T, GAL4-PPARγ-LBD reporter, read-out: PPARγ WT EC50 (activation of GAL4-PPARγ)", "value": 3.24, "unit": "µM"},
      {"measurement": "PPARγ WT (RGZ %)", "setting": "human PPARγ-LBD; activation relative to rosiglitazone (RGZ)", "value": 29.08, "unit": "%"},
      {"measurement": "concentration antagonizing rosiglitazone-dependent PPARγ activation", "setting": "human PPARγ-LBD; in presence of 1 μM rosiglitazone, reporter assay", "value": "≥ 2.5", "unit": "µM"},
      {"measurement": "transactivation of LXRβ", "setting": "LXRβ", "value": "no effects"},
      {"measurement": "IC50", "setting": "human PPARγ LBD", "value": 36.3, "unit": "µM"},
      {"measurement": "Ki", "setting": "human PPARγ LBD", "value": 13, "unit": "µM"},
      {"measurement": "insulin-stimulated glucose uptake (2-NBDG)", "setting": "3T3-L1 adipocytes", "value": "enhanced the insulin-stimulated glucose uptake"},
      {"measurement": "insulin sensitivity and glucose transport (2-NBDG)", "setting": "L02 normal hepatocytes", "value": "significantly increased insulin sensitivity and promoted glucose transport"},
      {"measurement": "expression of Alp and Col1", "setting": "[1]; 7 days", "value": "increased expressions of Alp and Col1"},
      {"measurement": "expression of RANKL", "setting": "[1]; 7 days, rosiglitazone 1 μM, compared with control", "value": "not significantly changed"},
      {"measurement": "expression of Ibsp and Bglap", "setting": "[1]; Ibsp 14 days, Bglap 21 days", "value": "did not show any significant reductions"},
      {"measurement": "CDK5-mediated phosphorylation of PPARγ", "setting": "[2]", "value": "effectively blocked CDK5-mediated phosphorylation of PPARγ"},
      {"measurement": "fasting blood glucose", "setting": "diabetic KKAy mice; F12016 75 mg/kg by gavage once daily, day 3, 7, 14 and 21, vs vehicle", "value": "significantly reduced fasting blood glucose"},
      {"measurement": "glucose tolerance (OGTT)", "setting": "diabetic KKAy mice; after 14 days of treatment, 2 g/kg glucose, F12016 75 mg/kg", "value": "significantly improved glucose tolerance"},
      {"measurement": "blood glucose after insulin injection (ITT)", "setting": "diabetic KKAy mice; after 21 days, insulin 1 IU/kg, F12016 75 mg/kg, rosiglitazone 5 mg/kg", "value": "significantly reduced blood glucose"},
      {"measurement": "average body weight", "setting": "diabetic KKAy mice; after 21 days, F12016 75 mg/kg, rosiglitazone 5 mg/kg, vs vehicle", "value": "much lower than that of vehicle controls"}
    ]}
  ]
}
